Test results reported in ChEMBL document CHEMBL2074334, “Altered hepatobiliary disposition of acetaminophen glucuronide in isolated perfused livers from multidrug resistance-associated protein 2-deficient TR(-) rats” (J Pharmacol Exp Ther, 2000).

Target: ATP-binding cassette sub-family C member 2 (Rattus norvegicus, UniProt Q63120)
Assay: TP_TRANSPORTER: decrease in biliary excretion in isolated perfused liver from TR- rat
Type: functional

ATP-binding cassette sub-family C member 2, sequence (Q63120 whole entry, the tested form may be a part): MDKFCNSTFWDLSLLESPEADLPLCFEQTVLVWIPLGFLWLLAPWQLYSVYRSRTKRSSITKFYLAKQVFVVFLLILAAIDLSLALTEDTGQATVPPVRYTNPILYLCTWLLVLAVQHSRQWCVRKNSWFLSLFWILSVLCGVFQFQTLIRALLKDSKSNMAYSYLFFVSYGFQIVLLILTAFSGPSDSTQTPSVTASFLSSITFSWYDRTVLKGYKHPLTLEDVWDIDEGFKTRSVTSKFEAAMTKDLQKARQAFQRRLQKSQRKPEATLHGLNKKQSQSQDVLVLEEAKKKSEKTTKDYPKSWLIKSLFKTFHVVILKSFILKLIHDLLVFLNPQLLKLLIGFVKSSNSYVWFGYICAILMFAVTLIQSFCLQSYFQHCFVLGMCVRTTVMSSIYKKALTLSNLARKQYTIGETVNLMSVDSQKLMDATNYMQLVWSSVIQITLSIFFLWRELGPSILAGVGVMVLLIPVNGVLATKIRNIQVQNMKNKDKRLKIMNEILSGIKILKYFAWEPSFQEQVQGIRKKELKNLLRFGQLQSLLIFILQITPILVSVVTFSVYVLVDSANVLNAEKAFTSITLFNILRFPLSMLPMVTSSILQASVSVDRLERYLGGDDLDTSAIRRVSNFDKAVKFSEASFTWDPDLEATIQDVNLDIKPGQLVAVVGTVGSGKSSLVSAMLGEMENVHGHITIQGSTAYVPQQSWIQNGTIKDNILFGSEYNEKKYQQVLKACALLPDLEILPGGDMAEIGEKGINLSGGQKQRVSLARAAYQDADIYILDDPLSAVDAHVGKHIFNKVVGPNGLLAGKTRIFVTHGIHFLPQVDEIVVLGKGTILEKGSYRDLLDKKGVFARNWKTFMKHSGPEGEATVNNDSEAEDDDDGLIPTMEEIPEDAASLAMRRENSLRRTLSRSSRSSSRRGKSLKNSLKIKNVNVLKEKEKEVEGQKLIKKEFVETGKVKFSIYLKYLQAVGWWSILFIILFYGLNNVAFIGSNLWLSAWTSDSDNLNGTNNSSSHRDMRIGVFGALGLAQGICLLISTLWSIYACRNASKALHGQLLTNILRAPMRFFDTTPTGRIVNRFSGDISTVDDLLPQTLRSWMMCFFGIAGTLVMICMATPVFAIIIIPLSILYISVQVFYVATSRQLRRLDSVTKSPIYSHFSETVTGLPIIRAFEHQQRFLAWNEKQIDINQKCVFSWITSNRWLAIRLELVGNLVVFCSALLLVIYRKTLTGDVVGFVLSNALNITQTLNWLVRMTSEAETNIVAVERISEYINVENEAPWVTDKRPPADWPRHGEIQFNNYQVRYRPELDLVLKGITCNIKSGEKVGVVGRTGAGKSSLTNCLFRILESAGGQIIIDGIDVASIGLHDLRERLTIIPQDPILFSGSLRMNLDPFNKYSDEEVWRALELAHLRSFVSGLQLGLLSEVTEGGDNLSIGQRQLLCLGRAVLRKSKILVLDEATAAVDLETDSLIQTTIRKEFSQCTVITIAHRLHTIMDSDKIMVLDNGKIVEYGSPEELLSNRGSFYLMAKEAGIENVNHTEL

For `CC(=O)Nc1ccccc1.O=S(=O)(O)O`, the Activity was “substrate [+]”.
In the case of `CC(=O)Nc1ccc(O[C@@H]2O[C@H](C(=O)O)[C@@H](O)[C@H](O)[C@H]2O)cc1` [ACETAMINOPHEN GLUCURONIDE], the Activity was “substrate [+]”.
